Reference: US10118943B2, “Compounds and methods for inhibiting cell death” (Ramot at Tel-Aviv University Ltd., priority 2012, dated 2018)
Entries after “also recorded” stand apart in the source; their conditions may differ.

Legend:
[1] = system: PC12 cells; test: PC12 cell survival assay, zinc toxicity, MTS (Example 1); settings: 400 μM zinc, 4 hrs, peptide 10^−9M
Description: PC12 cells (Pheochromocytoma cells) (ATCC, Bethesda, Md., USA) were seeded at 3×10^4 cells/cm^2 on poly-L-Lysine coated plastic tissue culture dishes (Corning, Lowell, Mass., USA) to form an adherent monolayer. Cells were maintained in Dulbecco's modified Eagle's medium (DMEM) supplemented with 10% horse serum (HS), 5% fetal calf serum (FCS), 2 mM glutamine, 100 U/ml penicillin and […] streptomycin (Biological Industries, Beit Haemek, Israel). PC12 differentiation was induced by nerve growth factor (NGF, Sigma) at concentrations of 50 ng/ml by replacing half of the medium every other day until the cells acquired a differentiated morphology. Differentiated cells were defined as bearing two or more neurites with lengths equal to or more than twice the diameter of the cell body (P. Lamoureux et al., The Journal of cell biology 110, 71 (January, 1990)). The cells were incubated in 5% CO2 in a humidified incubator at 37° C. The cells were sub-cultured every 5 days at a 4:1 split ratio by pipetting. The medium was changed every 2 or 3 days after adhesion.
Transfections were performed using Lipofectamine RNAiMAX (Invitrogen). Transfection was carried out according to manufacturer's protocol. For rat MAPRE3 knockdown, PC12 cells or neurons were plated in growth medium without antibiotics at concentration of 10^4 cells/0.32 cm^2 such that they will be 30-50% confluent at the time of transfection. To obtain the highest transfection efficiency and low non-specific effects, siRNA transfection was performed in the following optimized conditions: 50 nM for neurons and 25 nM PC12 of each siRNA construct with 0.2 μl Lipofectamine RNAiMAX (Invitrogen) was added per well of the 96-well plate and scaled up for different 24 or 6-well plates, according to the manufacturer's instructions. The medium was changed one day after transfection. 48 and 72 hours later, cells were harvested to assay for gene knockdown at the RNA and protein levels.
The cells were incubated for 4 hrs at 37° C. 5% CO2. Survival was measured using the MTS assay.
Metabolic activity of cells was measured by the CellTiter 96® Aqueous Non-Radioactive Cell Proliferation kit in accordance with the manufacturer's instructions (Promega). The assay uses a colorimetric method for determining the number of viable cells employing a tetrazolium compound [3-(4,5-dimethylthiazol-2-yl)-5-(3-carboxymethoxyphenyl)-2-(4-sulfophenyl)-2H-tetrazolium, MTS] and an electron-coupling reagent, phenazine methosulfate (PMS). MTS is bio-reduced by cells into a formazan product that is detected at 490 nm. The conversion of MTS into the formazan form is accomplished by dehydrogenase enzymes found in metabolically active cells. Thus, the quantity of formazan product as measured by the amount of 490 nm absorbance is directly proportional to the number of living cells in culture (A. H. Cory, T. C. Owen, J. A. Barltrop, J. G. Cory, Cancer Commun 3, 207 (July, 1991)).

[2] = target: T1, full-length human EB3 recombinant protein (Homo sapiens, UniProt Q9UPY8); test: Sulfolink coupling gel-NAP affinity chromatography with recombinant EB3, western analysis; format: binding; settings: 2 mg soluble peptide incubated with recombinant EB3 and column beads
T1 construct: Full-length human EB3 was subcloned into pEX-N-His vector; 6xHis (N, cleaved yes); made in house; host or cells: E. coli BL21(DE3)
T1 sequence (Q9UPY8 whole entry): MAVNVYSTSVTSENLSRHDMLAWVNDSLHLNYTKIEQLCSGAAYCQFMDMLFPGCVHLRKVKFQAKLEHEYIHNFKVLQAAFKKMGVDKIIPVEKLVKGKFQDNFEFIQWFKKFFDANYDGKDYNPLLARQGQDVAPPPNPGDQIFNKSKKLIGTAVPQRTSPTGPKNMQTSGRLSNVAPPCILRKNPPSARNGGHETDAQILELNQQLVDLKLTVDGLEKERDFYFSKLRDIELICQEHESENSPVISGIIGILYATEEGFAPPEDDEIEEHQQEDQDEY
Description: (§1) Column load, flow through, wash and elution fractions were further analyzed by polyacrylamide gel electrophoresis, followed by western analysis with EB3 antibodies. […] Column chromatography, elution and western blots were performed as above. The extract fractions (flow, wash and elution) were separated by electrophoresis followed by protein detection (FIG. 6).

[3] = system: primary cortical neurons; test: PSD-95 density in primary cortical neuron culture; format: cell-based, rat; settings: neurons treated for 2 hrs
Description: Methods: 1. Primary cultures of neurons were prepared as follows. Newborn rats were sacrificed on postnatal day 1. Cerebral cortex tissue was then dissected and dissociated individually from each pup with the Papain Dissociation System (PDS; Worthington Biochemical Corporation) according to the manufacturer's instructions. 2. Cells were fixed with ice cold methanol, blocked with 2% bovine serum albumin (BSA) and 5% normal goat serum in Tris buffered saline containing tween 20 (TBS-T; 20 mM Tris pH 7.5, 136.8 mM NaCl, and 0.05% v/v Tween 20), and incubated with primary antibody followed by the appropriate secondary antibody. 3. Primary antibodies that were used include: monoclonal anti PSD-95 (ab-2723, Abcam), monoclonal anti Tyr-α-tubulin antibody (YL1/2) (VMA1864, Abcys, Paris, France), polyclonal anti Glu-α-tubulin antibody (L4) (AbC0101, Abcys, Paris, France), DyLight 488-labeled secondary goat anti-mouse IgG, DyLight 633-labeled secondary goat anti-rabbit IgG (KPL, Gaithersburg, Md., USA), Cy3-conjugated secondary goat anti-Rat IgG, (Jackson ImmunoResearch). 4. Images were collected with a Leica SP5 confocal laser scanning microscope (Mannheim, Germany) with 63× oil immersion optics, laser lines at 488, 561, 633 nm. Identical confocal laser scanning microscopy (CLSM) parameters (e.g., scanning line, laser light, gain, and offset etc.) were used for control and NAP treated cells.
For instance, a PSD-95 expression assay using primary cortical neuron cultures established from suitable animals may be performed to confirm a compound's activity in promoting cell plasticity. More specifically, primary cultures of neurons are prepared by first taking cerebral cortex tissue from newborn rats on postnatal day 1. The cerebral cortex tissue is then dissected and dissociated individually from each animal. Cells are fixed with ice cold methanol, blocked (e.g., with bovine serum albumin (BSA) and normal goat serum), and incubated with primary antibody (e.g., monoclonal antibody against PSD-95), optionally followed by the appropriate secondary antibody for imaging purposes. Images of primary neuronal cultures are taken and compared between cultures with or without being exposed to a test compound. An increased PSD-95 expression is indicative of the test compound being capable of promoting or protecting cell plasticity, especially neuronal plasticity.
Cerebral cortex tissue from newborn rats was dissected and dissociated individually from each pup with the Papain Dissociation System (PDS), (Worthington Biochemical Corporation) according to the manufacturer's instructions. Cortical neurons were maintained in Neurobasal medium (NB), (Gibco) supplemented with NeuroCult B27-SM1 ([…]), 1% Glutamax (Gibco), and grown on poly-D-lysine-coated cell culture glass cover slips.
Images were collected with a Leica SP5 confocal laser scanning microscope (Mannheim, Germany) with 63× oil immersion optics, laser lines at 488, 561, 633 nm or with LSM 510 META (Zeiss, Jena, Germany) confocal laser scanning microscope with 63× oil immersion optics, laser lines at 488, 568, 633 nm. When comparing fluorescence intensities, identical CLSM parameters (e.g., scanning line, laser light, gain, and offset etc.) were used. All of the fluorescent signals acquired were above the autofluorescent background as measured from a control slide stained with secondary antibody without a primary antibody. To compare the relative levels of protein expression, the average integrated density (AID) image analysis procedure was used for cell immunostains. In brief, integrated density is defined by the sum of the values of the pixels in the selected region of interest (ROI). This is equivalent to the product of Area and Mean Gray Value. AID for the positive stained area was determined by measuring the fluorescent intensity of the ROI, which is above the positive cut-off intensity. […]

[4] = system: astrocytes; test: MT organization in astrocytes (FIG. 14); format: cell-based, rat
Description: Newborn rats (Harlan, Jerusalem, Israel) were sacrificed by decapitation, and the brain was removed (D. E. Brenneman et al., J Pharmacol Exp Ther 309, 1190 (June, 2004)). The tissue was minced with scissors and placed in Hank's balanced salts solution 1 (S1), containing HBSS (Biological Industries, Beit Haemek, Israel), 15 mM HEPES buffer, pH 7.3 (Biological Industries, Beit Haemek, Israel), and 0.25% trypsin (Biological Industries) in an incubator at 37° C. 5% CO2 for 20 min. The cells were then placed in 5 mL of solution 2 (S2) containing 10% heat inactivated fetal serum (Biological Industries), 0.1% gentamycin sulphate solution (Biological Industries), and 0.1% penicillin-streptomycin-nystatin solution (Biological Industries) in Dulbecco's modified Eagle's medium (DMEM, Sigma, Rehovot, Israel). The cells were allowed to settle and are then transferred to a new tube containing 2.5 mL of S2 and triturated using a Pasteur pipette. Cell density was determined using a hemocytometer (Neubauer Improved, Germany) and 15×10^6 cells/15 mL S2 are inoculated into each 75-cm^2 flask (Corning, Corning, N.Y., USA). Cells are incubated at 37° C. 10% CO2. The medium was changed after 24 h, and cells are grown until confluent.
The flasks were shaken to dislodge residual neurons and oligodendrocytes that may be present. Flasks were then washed with 10 mL cold HBSS×1, HEPES 15 mM. 5 mL of versene-trypsin solution (BioLab, Jerusalem, Israel) were added to each flask, and the flasks are incubated at room temperature for 5 min to remove astrocytes. The flasks were shaken to dislodge the cells. The versenetrypsin solution was neutralized with 5 mL of S2. The cell suspension was collected and centrifuged at 100 g for 10 min. The supernatant was removed and the cells resuspended in S2. Cells were inoculated into 75-cm^2 flasks or plated in 35-mm dishes (Corning, Corning, N.Y., USA) and incubated until confluence at 37° C. 10% CO2. […]

[5] = system: PC12 cells; settings: ZnCl2 400 μM, peptide 10^−13M
Description: FIG. 15: Rat pheochromocytoma cells (PC12) were seeded on Poly-D-Lysine coated 96-well tissue culture dishes in high concentration (30,000 cells/well). On the day of the experiment the cells were treated with ZnCl2 (400 μM) either alone or in combination with different concentration of SKIP for 4 h. After 4 h the cell viability was analyzed by MTS assay. […] All values are from one experiment performed in hexplicate.
Rat pheochromocytoma cell (PC12, ATCC, Bethesda, Md., USA) were grown in 10-cm tissue culture dishes (Corning). The base medium for this cell line was RPMI-1640 Medium (Invitrogen) supplemented with 10% heat-inactivated horse serum, 5% fetal bovine serum and solution containing 100 U/ml penicillin together with […] streptomycin (Biological Industries, Beit Haemek, Israel). The cells were incubated in 95% air; 5% CO2 in a humidified incubator at 37° C. The medium was changed every 2 to 3 days. The cells were subcultured when cell density reached 4×10^6 cells/ml. The cells were split in a ratio of 1:4.
On the day before the experiment cells were to be harvested, re-suspended and seeded on tissue culture dishes. For cell viability measurements, cells were seeded on Poly-D-Lysine coated 96-well tissue culture dishes (Sigma-Aldrich) at a concentration of 3×10^4 cells/well.
The cell viability is measured by colorimetric method that determines the number of viable cells in culture. This method is based on the bio-reduction of the tetrazolium compound [3-(4,5-dimethylthiazol-2-yl)-5-(3-carboxymethoxyphenyl)-2-(4-sulfophenyl)-2H-tetrazolium; MTS] by living cells into a colored formazan product. This reaction is occurring in the presence of an electron coupling reagent (phenazine ethosulfate; PES). The amount of formazan product is measured by ELISA plate reader at 490 nm and is directly proportional to the number of living cells in culture (CellTiter 96® AQueous One Solution Cell Proliferation Assay; Promega, Madison, Wis., USA).

[6] = target: T2, Full-length human EB3 recombinant protein (human, UniProt Q9UPY8 1-281); test: competition with soluble peptide on the NAP affinity column; western blot
T2 construct: mature; Full-length protein; also called recombinant EB3; MAPRE3
T2 sequence (Q9UPY8 whole entry): as above
Description: as §1, with “6). […] In order to verify that EB3 was indeed eluted from the column, beads were taken from the column resin mixed with sample buffer and western blot analysis was performed (FIG. 6—"[…]" most right lane).” for “6).”

Acetyl-NAPVSKIPQ-NH2 (Ac-NAPVSKIPQ-NH2)
protection against cell death induced by zinc toxicity (MTS survival) [1]: provided protection against zinc toxicity | protection against cell death induced by zinc toxicity (MTS survival) ([1]; listed as Ac-SKIP): significantly increased survival | protection against cell death induced by zinc toxicity (MTS survival) ([1]; listed as Acetyl-NAPVSKIPQ): significantly increased survival

NAPVAAAAQ [negative control peptide]
competition for EB3 binding to column-bound NAP [2]: no competition | derivative peptides effect on PSD-95 density vs vehicle controls (FIG. 10c) [3]: did not enhance PSD-95 staining; also recorded: not affected

NAPVAIPQ [NAPVAIPQ (S5A)]
activity of NAP-like peptide (FIG. 14) [4]: inactive

NAPVSAIPQ [negative control peptide]
competition for EB3 binding to column-bound NAP [2]: no competition | derivative peptides effect on PSD-95 density vs vehicle controls (FIG. 10c) [3]: did not enhance PSD-95 staining; also recorded: not affected

NAPVSGIPQ (synthetic novel peptide core sequence derived from hybrid microtubule end-binding protein 3 (EB3)-binding microtubule plus-end tracking proteins (+TIPs) and activity- dependent neurotrophic factor (ADNF) active core site (NAP)) [NAPVSGIPQ (SEQ ID NO:5)]
protection against Zn toxicity (MTS viability vs Zn alone) [5]: showed protection

NAPVSIAQ [NAPVSIAQ (P7A)]
activity of NAP-like peptide (FIG. 14) [4]: inactive | effect on MT organization ([4]; 4 hours of incubation): did not mimic NAP activity

NAPVSRIPQ
protection against cell death induced by zinc toxicity (MTS survival) [1]: inactive

NAPVTRIPQ
protection against cell death induced by zinc toxicity (MTS survival) [1]: inactive

NAPVSKIPQ
binding result [6]: binds
